Marks after values point to notes of the source that are not given here.
Key:
Assay type in all cases: in vivo
Conditions in all cases: 100 = 100% disease control
Botrytis cinerea = assay: Test E: tomato botrytis, preventive spray on tomato seedlings, visual disease rating
Excerpt: (§1) General protocol for preparing test suspensions for Tests A-E: the test compounds were first dissolved in acetone in an amount equal to 11% of the final volume and then suspended at the desired concentration (in ppm) in acetone and purified water (50/50 mix by volume) containing 250 ppm of the surfactant Trem® 014 (polyhydric alcohol esters). The resulting test suspensions were then used in Tests A-E. Spraying a 200 ppm test suspension to the point of run-off on the test plants was the equivalent of a rate of 800 g/ha.
The test suspension was sprayed to the point of run-off on tomato seedlings. The following day the seedlings were inoculated with a spore suspension of Botrytis cinerea (the causal agent of tomato botrytis) and incubated in saturated atmosphere at 20° C. for 48 h, and then moved to a growth chamber at 27° C. for 3 additional days, after which time disease ratings were visually made.
(§2) Results for Tests A-E are given in Table A. In the Table, a rating of 100 indicates 100% disease control and a rating of 0 indicates no disease control (relative to the controls). A dash (-) indicates no test results. All results are for 200 ppm except where followed by an “*”, which indicates 40 ppm or “**”, which indicates 50 ppm.

[1] = system: Puccinia recondita f sp. tritici; assay: Test B: wheat leaf rust, preventive spray on wheat seedlings, visual disease rating
Excerpt: as §1
(§3) The test suspension was sprayed to the point of run-off on wheat seedlings. The following day the seedlings were inoculated with a spore suspension of Puccinia recondita f sp. tritici (the causal agent of wheat leaf rust) and incubated in a saturated atmosphere at 20° C. for 24 h, and then moved to a growth chamber at 20° C. for 7 days, after which time disease ratings were visually made.
as §2

[2] = system: Erysiphe graminis f. sp. tritici; assay: Test A: wheat powdery mildew, preventive spray on wheat seedlings, visual disease rating
Excerpt: as §1
The test suspension was sprayed to the point of run-off on wheat seedlings. The following day the seedlings were inoculated with a spore dust of Erysiphe graminis f. sp. tritici, (the causal agent of wheat powdery mildew) and incubated in a growth chamber at 20° C. for 8 days, after which time disease ratings were visually made.
as §2

Septoria nodorum = assay: Test D: wheat glume blotch, preventive spray on wheat seedlings, visual disease rating
Excerpt: as §1
as §3, with “Septoria nodorum” for “Puccinia recondita f sp. tritici”, “glume blotch)” for “leaf rust)”, “48” for “24”
as §2

Septoria tritici = assay: Test C: wheat leaf blotch, preventive spray on wheat seedlings, visual disease rating
Excerpt: as §1
The test suspension was sprayed to the point of run-off on wheat seedlings. The following day the seedlings were inoculated with a spore suspension of Septoria tritici (the causal agent of wheat leaf blotch) and incubated in a saturated atmosphere at 24° C. for 48 h, and then moved to a growth chamber at 20° C. for 19 days, after which time disease ratings were visually made.
as §2

Structure (SMILES) | Test E disease control rating (Botrytis cinerea; 200 ppm) [%] | Test B disease control rating ([1]; 200 ppm) [%] | Test A disease control rating ([2]; 200 ppm) [%] | Test D disease control rating (Septoria nodorum; 200 ppm) [%] | Test C disease control rating (Septoria tritici; 200 ppm) [%] | Test E disease control rating (Botrytis cinerea; 40 ppm (*)) | Test B disease control rating ([1]; 40 ppm (*)) | Test A disease control rating ([2]; 40 ppm (*)) | Test D disease control rating (Septoria nodorum; 40 ppm (*)) | Test C disease control rating (Septoria tritici; 40 ppm (*))
COC(=O)NCc1cc(-c2ccn(-c3ccc(OC)cc3OCC#N)n2)ccc1C [Cmpd 32] | 66 | 100 | 94 | 100 | 100 | – | – | – | – | –
COC(=O)NCc1cc(-c2ccn(-c3ccc(Cl)cc3O)n2)ccc1C [Cmpd 33] | 0 | 94 | 0 | 100 | 2 | – | – | – | – | –
C#CCOc1cc(Cl)ccc1-n1ccc(-c2ccc(C)c(CNC(=O)OC)c2)n1 [Cmpd 34] | 91 | 100 | 100 | 100 | 100 | – | – | – | – | –
COC(=O)NCc1cc(-c2ccn(-c3ccc(Cl)cc3OCC#N)n2)ccc1C [Cmpd 35] | 41 | 100 | 92 | 100 | 100 | – | – | – | – | –
COC(=O)NCc1cc(-n2ccc(-c3ccc(Cl)cc3C)n2)ccc1C [Cmpd 36] | – | – | – | – | – | 74* % | 100* % | 100* % | 100* % | 100* %
COC(=O)NCc1cc(-n2ccc(-c3ccc(F)cc3C)n2)ccc1C [Cmpd 37] | – | – | – | – | – | 77* % | 100* % | 95* % | 100* % | 100* %
COC(=O)NCc1cc(-n2ccc(-c3ccc(Cl)cc3F)n2)ccc1C [Cmpd 39] | – | – | – | – | – | 53* % | 100* % | 99* % | 100* % | 100* %
COC(=O)NCc1cc(-n2ccc(-c3ccc(F)cc3Cl)n2)ccc1C [Cmpd 40] | – | – | – | – | – | 80* % | 100* % | 100* % | 100* % | 100* %
COC(=O)NCc1cc(-n2ccc(-c3ccc(C)cc3Cl)n2)ccc1C [Cmpd 41] | – | – | – | – | – | 36* % | 100* % | 100* % | 100* % | 100* %
COC(=O)NCc1cc(-n2ccc(-c3ccc(C)cc3F)n2)ccc1C [Cmpd 42] | – | – | – | – | – | 65* % | 100* % | 100* % | 100* % | 99* %
COC(=O)NCc1cc(-n2ccc(-c3ccc(C)nc3Cl)n2)ccc1C [Cmpd 43] | – | – | – | – | – | 62* % | 100* % | 98* % | 100* % | 87* %
COC(=O)NCc1cc(-n2ccc(-c3ccc(Cl)nc3C)n2)ccc1C [Cmpd 44] | – | – | – | – | – | 0* % | 100* % | 98* % | 100* % | 92* %
COC(=O)NCc1cc(-n2ccc(-c3ccc(Cl)nc3OC)n2)ccc1C [Cmpd 45] | – | – | – | – | – | 39* % | 100* % | 98* % | 100* % | 95* %
COC(=O)NCc1cc(-c2ccn(-c3ccc(Br)cc3[N+](=O)[O-])n2)ccc1C [Cmpd 48] | – | – | – | – | – | 37* % | 100* % | 0* % | 100* % | 100* %
COC(=O)NCc1cc(-c2ccn(-c3ccc(Cl)cc3[N+](=O)[O-])n2)ccc1C [Cmpd 49] | – | – | – | – | – | 8* % | 100* % | 26* % | 100* % | 95* %
COC(=O)NCc1cc(-n2ncc(-c3ccc(Cl)cc3F)n2)ccc1C [Cmpd 50] | – | – | – | – | – | 77* % | 100* % | 100* % | 100* % | 99* %
C#CCOc1cc(OC)ccc1-c1ccn(-c2ccc(C)c(CNC(=O)OC)c2)n1 [Cmpd 51] | 0 | 100 | 0 | 100 | 88 | – | – | – | – | –
COC(=O)NCc1cc(-c2ccn(-c3ccc(Cl)cc3C#N)n2)ccc1C [Cmpd 52] | – | – | – | – | – | 0* % | 100* % | 97* % | 100* % | 88* %
COC(=O)NCc1cc(-n2ccc(-c3ccc(OC)cc3OCC#N)n2)ccc1C [Cmpd 53] | 0 | 100 | 100 | 100 | 97 | – | – | – | – | –
COC(=O)NCc1cc(-n2ccc(-c3ccc(Br)cc3Cl)n2)ccc1C [Cmpd 55] | – | – | – | – | – | 38* % | 100* % | 100* % | 100* % | 91* %
COC(=O)NCc1cc(-n2ccc(-c3ccc(Br)cc3F)n2)ccc1C [Cmpd 56] | – | – | – | – | – | 56* % | 100* % | 100* % | 100* % | 98* %
COC(=O)NCc1cc(-n2ccc(-c3ccc(F)cc3Br)n2)ccc1C [Cmpd 57] | – | – | – | – | – | 63* % | 100* % | 100* % | 100* % | 99* %
COC(=O)NCc1cc(-n2ccc(-c3ccc(Br)cc3OC)n2)ccc1C [Cmpd 58] | – | – | – | – | – | 26* % | 100* % | 100* % | 100* % | 96* %
COC(=O)NCc1cc(-n2ccc(-c3ccc(OC)cc3Br)n2)ccc1C [Cmpd 59] | – | – | – | – | – | 52* % | 100* % | 99* % | 100* % | 97* %
COC(=O)NCc1cc(-c2ccn(-c3ccc(F)cc3Cl)n2)ccc1C [Cmpd 60] | – | – | – | – | – | 99* % | 100* % | 100* % | 100* % | 91* %
COC(=O)NCc1cc(-c2ccn(-c3ccc(Br)cc3Cl)n2)ccc1C [Cmpd 61] | – | – | – | – | – | 91* % | 100* % | 100* % | 100* % | 94* %
COC(=O)NCc1cc(-c2ccn(-c3ccc(Br)cc3Br)n2)ccc1C [Cmpd 62] | – | – | – | – | – | 100* % | 100* % | 100* % | 100* % | 97* %
COC(=O)NCc1cc(-c2ccn(-c3ccc(Cl)cc3Br)n2)ccc1C [Cmpd 63] | – | – | – | – | – | 99* % | 100* % | 100* % | 100* % | 96* %
COC(=O)NCc1cc(-c2ccn(-c3ccc(F)cc3F)n2)ccc1C [Cmpd 64] | – | – | – | – | – | 74* % | 100* % | 100* % | 100* % | 97* %
